The text below walks through data of patent publication US20150159131A1, “METHODS AND COMPOSITIONS FOR REGULATING MUSASHI FUNCTION” (Board of Trustees of the University of Arkansas, priority 2011, published 2015).

Common to all, as to type: cell-based, Xenopus
Experiment [1] relates to Musashi1 S322 phosphorylation. Put plainly: Western blot for S322-phosphorylated Musashi1 in oocyte lysates. Here is the method: Xenopus oocytes were isolated and cultured. Oocytes were induced to mature with 2 μg/ml progesterone. The rate of germinal vesicle breakdown (GVBD) was scored morphologically by observing the appearance of a white spot on the animal pole. Because oocytes from different frogs mature at different rates in response to progesterone, the culture times were standardized between experiments to the time taken for 50% of oocytes to undergo GVBD. Where indicated, oocytes were pre-treated with 50 μM MEK inhibitor, UO126 or DMSO vehicle for 30 minutes.
Antisera for phosphorylation specific Musashi1 S322 were generated by immunizing rabbits with the peptide VSSYISAAS(phospho)PAPSTGF (SEQ ID NO:26). The antibodies were affinity purified through a peptide-affinity column and used at 1:1000. Abcam antibodies to Musashi1 were used at 1:1000. Sigma Tubulin antibodies were used at 1:20,000. The phospho-specific Cdc2 antibody was used at 1:1000 and detects the inhibitory Tyr15 phosphorylation. The phospho-specific MAP kinase antibody (Cell Signaling) was used at 1:1000 and detects the activating phosphorylations at Thr202/Tyr204. The GST antibody (Santa Cruz) was used at 1:1000. The Xenopus Ringo antibody was used at 1:1000.
Oocytes were lysed in NP40 lysis buffer containing sodium vanadate and a protease inhibitor cocktail. Where indicated, a portion of the lysate was transferred to STAT-60 for RNA extraction. […]
For orientation: A western blot detects proteins with antibodies after separation by electrophoresis.

In the next experiment the test system is Mos mRNA. The experiment can be described thus: Polyadenylation assay of endogenous Mos mRNA (RNA ligation-coupled PCR). The text has this:
The increase in PCR product length is specifically due to extension of the poly[A] tail. The primer used to analyze endogenous Xenopus Musashi1 mRNA polyadenylation was [NT] ID NO:24).

The next experiment has as its system Musashi1 protein. Put plainly: Western blot for endogenous Musashi1 protein accumulation at GVBD50. The note with it: at GVBD50, normalized to tubulin, 3 experiments, p<0.01. Here is the method: Oocytes were lysed in NP40 lysis buffer containing sodium vanadate and a protease inhibitor cocktail. Where indicated, a portion of the lysate was transferred to STAT-60 for RNA extraction. Protein lysates were then spun, clarified and transferred immediately to 1× sample buffer. The lysates were run on a 10% Nupage gel and transferred to a 0.2 μm-pore-size nitrocellulose filter. The membrane was blocked with 1% bovine serum albumin in TBST for 60 min at room temperature. Following incubation with primary antibody, filters were incubated with horseradish peroxidase conjugated secondary antibody using enhanced chemiluminescence in a Fluorchem 8000 Advanced Imager. To determine if Musashi is regulated by progesterone, Musashi levels were detected in progesterone stimulated oocytes using methods described in Example 1. […] Lysates from oocytes treated with or without progesterone were analyzed by western blot for endogenous Musashi1 protein accumulation at GVBD50. Quantifications of fold changes in Musashi1 levels (as indicated below western) were normalized to tubulin from the same sample, and levels in immature oocytes (Imm) arbitrarily set to 1.0. The bar graph of FIG. 1B represents data from 3 independent experiments with S.E.M. (Student's t-test; p<0.01).

Molecules are shown by their SMILES.

On to `N#CC(=C(/N)Sc1ccccc1N)/C(C#N)=C(/N)Sc1ccccc1N` [UO126], for which, in experiment [1] (oocytes expressing GST-Musashi1, progesterone stimulated), the “effect on progesterone-stimulated Musashi S322 phosphorylation” value was “significant attenuation”. In addition, in the experiment on Mos mRNA (oocytes treated with MAP kinase signaling inhibitor), the “effect on initial polyadenylation or translation of the Mos mRNA” value was “does not prevent”.
`CC(=O)[C@H]1CC[C@H]2[C@@H]3CCC4=CC(=O)CC[C@]4(C)[C@H]3CC[C@]12C` [progesterone]: in experiment [1] (uninjected oocytes, endogenous Musashi1, n=4, p<0.05), the “maximum progesterone-induced change in phospho-Musashi1 levels normalized to tubulin, relative to immature oocytes” value is on record as 1.25+/−0.11 fold. For the same compound, in the experiment with Mos mRNA (oocytes expressing GST-Musashi), the “time at which Mos mRNA polyadenylation initiates after progesterone stimulation” value is “approximately 3 hours”. For the same compound, in the experiment on Musashi1 protein, the “Musashi protein levels in response to progesterone stimulation” value is “increase”.
